Reference: patent US11096952B2, “Chemicals and methods to prevent and treat TGF-beta mediated activation of fibroblasts to reduce and treat cancer and fibrosis” (Board of Supervisors of Louisiana State University and …, priority 2016, dated 2021)

Tests used:
[1] = tested on: TGF-β-induced fibronectin expression; assay: Western blot of TGF-β-induced fibronectin expression in HPS-19 fibroblasts; type: cell-based, human; conditions: HPS-19, 5 ng/ml TGF-β, digoxin 30, 60, 120, 240 nM, 24 hours
Description: Representative blots are shown with two exposures of fibronectin to account for strong signal intensity. n=3.

WPMY-1 cells = assay: Viability / metabolic activity assay on WPMY-1 cells
Description: Metabolically viable cells (indicated by bar; left y-axis) are indicated by fluorescent intensity (560/590 nm).
Cardiac glycosides have been shown previously to inhibit cell growth in a variety of cell types, in order to determine whether cardiac glycosides inhibited TGE-β-induced fibronectin expression by affecting metabolic activity, viability assays were performed on WPMY-1 cells over 48 hours in 1% FBS DMEM.

[2] = tested on: TGF-β-induced CAF differentiation markers; assay: Real-Time PCR of CAF markers in WPMY-1 fibroblasts; type: cell-based, human; conditions: WPMY-1, 120 nM digoxin, 24 h
Description: In order to determine if digoxin prevents CAF differentiation or simply TGF-β-induced fibronectin expression, the inventors performed quantitative reverse transcriptase-PCR (qPCR) to analyze other CAF markers, including α-SMA, collagen 1a1 (COL1A1), fibroblast activation protein (FAP), and tenascin C (TNC). RNA was extracted from cells treated with 120 nM digoxin±TGF-β for 24 hours. […] Additionally, the inventors observed that α-SMA mRNA expression was already high in WPMY-1 cells and not increased by addition of TGF-β, but was reduced in response to digoxin treatment.

SMAD promoter activity = assay: SMAD luciferase reporter in WPMY-1 cells; type: cell-based, human; conditions: WPMY-1, digoxin 60 or 120 nM, 5 ng/ml TGF-β, 24 hours
Description: A) WPMY-1 human fibroblast cells transfected with SMAD (left) or EGR1 (right) luciferase reporter were treated with or without 5 ng/ml TGF-β in the presence or absence of Digoxin (60 or 120 nM) for 24 hours. Relative luciferase activity is shown. *P<0.05, **P<0.01, ***P<0.001 are significant differences compared to values set to 1 (n=3, Values are ±SEM). B) J2 mouse fibroblast cells were treated with or without 5 ng/ml TGF-β in the presence or absence of increasing concentrations (30, 60, 120, or 240 nM) of digoxin for 24 hours. Representative blot is shown with two exposures of fibronectin to account for strong signal intensity (n=3).
Finally, J2 mouse fibroblast cells were treated with or without 5 ng/ml TGF-β in the presence or absence of increasing concentrations (30, 60, 120, or 240 nM) of digoxin for 24 hours.

[3] = tested on: activated fibroblast phenotype (fibronectin, YAP, TAZ, smooth muscle actin); assay: Western blot of activated fibroblast markers (FN, YAP, TAZ, SMA) in MRC-5 lung fibroblasts induced by growth factors; type: cell-based, human
Description: FIG. 10C: MRC-5 lung fibroblast cells were serum-starved 24 hours then treated with 10 ng/mL TGF-β in serum-free media for 24 hours with or without verteporfin at the indicated concentration. FN: fibronectin, YAP: yes-activated protein, TAZ: transcriptional coactivator with PDZ-binding motif, and SMA(ACTA2): smooth muscle actin. Representative western blot is shown (n=3).
FIG. […] T.F.8: combination TGF, FGF, IL8. […] FN: fibronectin, YAP: yes-activated protein, TAZ: transcriptional coactivator with PDZ-binding motif, and SMA(ACTA2): smooth muscle actin. Representative western blot is shown (n=2).

[4] = tested on: transcriptional upregulation of activated fibroblasts markers by TGF-β or IL-8; conditions: MRC-5, 10 ng/mL TGF-β or 20 ng/ml IL-8, 24 hours; digoxin 150 nM, pyrvinium 300 nM
Description: Expression of the indicated genes was analyzed by real-time qPCR. TGFβ treated samples were set at 1 and other conditions were normalized accordingly. FN1: fibronectin, YAPv4: yes-activated protein, TNC: tenascin C, Col1A1: collagen 1a1, WWTR1v2: WW domain-containing transcription regulator protein 1 (TAZ), and SNAI1: Snail1. Representative data from at least two independent experiments are provided.

[5] = tested on: TGF-β-induced fibronectin; conditions: MRC-5, 10 ng/mL TGF-β, 24 hours, low concentrations alone or in combination
Description: (§1) FIGS. 13A-13C: MRC-5 lung fibroblast cells were serum-starved 24 hours then treated with or without 10 ng/mL TGF-β for 24 hours (T-24 hr). […] FN: fibronectin, YAP: yes-activated protein, TAZ: transcriptional coactivator with PDZ-binding motif, and SMA(ACTA2): smooth muscle actin. Representative western blot is shown (n=2). […] Cells were fixed in −20C methanol for 15 minutes and immunolabeled for fibronectin. Cellomics arrayscan imaging was performed and staining intensity was quantified and analyzed for fibronectin expression on a per cell basis.
(§2) Turning now to FIGS. 13A-13E, in a clinical setting, it would be advantageous for the efficacy of the therapeutics that the activated fibroblasts be reversed to a quiescent state upon treatment. […] To test the combinations, the inventors obtained quantitative analysis of fibronectin staining in fibroblasts upon treatment with TGF-β in the presence or absence of drug combinations.

[6] = tested on: activated fibroblast phenotype; conditions: MRC-5 pre-activated with 10 ng/mL TGF-β 24 hours, then 24 hours treatment
Description: as §1, §2

In the case of `C[C@H]1O[C@@H](O[C@H]2[C@@H](O)C[C@H](O[C@H]3[C@@H](O)C[C@H](O[C@H]4CC[C@@]5(C)[C@H](CC[C@@H]6[C@@H]5C[C@@H](O)[C@]5(C)[C@@H](C7=CC(=O)OC7)CC[C@]65O)C4)O[C@@H]3C)O[C@@H]2C)C[C@H](O)[C@@H]1O` [digoxin], the “TGF-β-induced fibronectin expression (western blot)” value [1] is reported as “prevents TGF-β-induced fibronectin expression in a dose dependent manner”, the “cell viability / metabolic activity” value (WPMY-1 cells) is reported as “no effect on cell viability” and the “TGF-β-induced expression of FN1, COL1A1, FAP, TNC mRNA” value ([2]; 5 ng/ml TGF-β) is reported as “prevented TGF-β-induced expression of FN1, COL1A1, FAP, and TNC mRNA”. For the same molecule, the “α-SMA mRNA expression” value [2] was “reduced”, the “TGF-β-induced SMAD promoter (luciferase) activity” value (SMAD promoter activity) was “prevents the TGF-β induction of the SMAD signaling pathway” and the “activated fibroblast phenotype induced by TGF-β and FGF (fibronectin, YAP, TAZ, smooth muscle actin)” value ([3]; MRC-5, 10 ng/mL TGF-β and 20 ng/ml FGF, 24 hours) was “able to prevent the activated fibroblast phenotype”. For the same molecule, the “activated fibroblast phenotype upon TGF-β and FGF, compared with nintedanib” value ([3]; MRC-5, 10 ng/mL TGF-β and 20 ng/ml FGF, 24 hours, nintedanib 200 nM) was “able to block the activated fibroblast phenotype better than nintedanib”, the “fibroblast activation from a combination of growth factors (TGF, FGF, IL8)” value ([3]; MRC-5, 10 ng/mL TGF-β, 20 ng/mL FGF, 20 ng/mL IL-8, digoxin 250 nM, pyrvinium 500 nM vs pirfenidone 500 μm, nintedanib 250 nM) was “able to block fibroblast activation from a combination of growth factors better than pirfenidone or nintedanib” and the “induction of fibronectin, YAP, TAZ, smooth muscle actin by TGF-β” value ([3]; MRC-5, 10 ng/mL TGF-β, serum-free, 24 hours, dose escalation) was “block the induction of activated fibroblasts”. The “transcriptional induction of collagen 1a1, tenascin C, fibronectin, YAP, Snail (TGF-β) and TAZ (IL-8)” value [4] was “prevented the transcriptional induction of collagen 1a1, tenascin C, fibronectin, YAP and Snail downstream of TGF-β signaling and TAZ downstream of the fibroblast chemokine IL-8”, the “fibronectin staining intensity per cell (Cellomics arrayscan)” value [5] was “the levels of fibronectin are reduced” and the “reversal of activated fibroblast phenotype (fibronectin, TAZ, smooth muscle actin)” value [6] was “revert fibroblasts to the quiescent state”.
